Laboratory results published in paper PMC6325233, “A Novel Actin Binding Drug with In Vivo Efficacy” (Antimicrobial Agents and Chemotherapy, 2018).

How the values were obtained:
Assay type in all cases: cell-based
S. cerevisiae Δrom1 = experiment: MIC against deletion mutant; conditions: Rho1-GEF
Description: (§1) Occidiofungin was purified from a liquid culture of Burkholderia contaminans MS14 as previously described ([21]). MIC susceptibility testing was performed according to the CLSI M27-A3 and M38-A2 standards for the susceptibility testing of yeasts and filamentous fungi, respectively. S. cerevisiae deletion mutants were obtained from the commercially available BY4741 deletion library (Thermo Scientific).

S. cerevisiae Δrdi1 = experiment: MIC against deletion mutant; conditions: Rho GDP-inhibitor
Description: as §1

S. cerevisiae Δscp1 = experiment: MIC against deletion mutant; conditions: Actin cross linker
Description: as §1

S. cerevisiae Δrgl1 = experiment: MIC against deletion mutant; conditions: Tus1p cofactor
Description: as §1

S. cerevisiae Δsac6 = experiment: MIC against deletion mutant; conditions: Actin bundling, Fimbrin
Description: as §1

S. cerevisiae Δbni1 = experiment: MIC against deletion mutant; conditions: Actin nucleation, Formin
Description: as §1

S. cerevisiae Δbnr1 = experiment: MIC against deletion mutant; conditions: Actin nucleation, Formin
Description: as §1

S. cerevisiae Δabp1 = experiment: MIC against deletion mutant; conditions: ARP2/3 activator
Description: as §1

S. cerevisiae Δcap2 = experiment: MIC against deletion mutant; conditions: Barbed-end actin capping protein
Description: as §1

S. cerevisiae Δmyo4 = experiment: MIC against deletion mutant; conditions: Actin based motor activity, Type V motor
Description: as §1

S. cerevisiae Δbem2 = experiment: MIC against deletion mutant; conditions: Rho-GAP for the CWI pathway
Description: as §1

S. cerevisiae Δtpm1 = experiment: MIC against deletion mutant
Description: as §1

S. cerevisiae Δarc18 = experiment: MIC against deletion mutant; conditions: ARP2/3 subunit
Description: as §1

S. cerevisiae Δsac7 = experiment: MIC against deletion mutant; conditions: Rho1-GAP
Description: as §1

S. cerevisiae Δmyo5 = experiment: MIC against deletion mutant; conditions: Actin based motor activity, Type I motor
Description: as §1

S. cerevisiae Δrom2 = experiment: MIC against deletion mutant; conditions: Rho1/2-GEF
Description: as §1

S. cerevisiae Δtpm2 = experiment: MIC against deletion mutant; conditions: Actin filament binding, Tropomyosin
Description: as §1

S. cerevisiae Δtus1 = experiment: MIC against deletion mutant; conditions: Rho1p GEF
Description: as §1

[1] = test system: S. cerevisiae (BY4743, diploid); experiment: DNA (nuclear) segregation assay, DAPI; conditions: for percentage of cells in category, column 2 / percentage of cells in category, column 4 / percentage of cells in category, column 3 / percentage of cells in category, column 1: 0.5X MIC, 30 °C, two experiments; for percentage of cells in category, column 2: untreated 3.9 ± 1.2; for percentage of cells in category, column 4: untreated 1.4 ± 0.5; for percentage of cells in category, column 3: untreated 13.7 ± 2.5; for percentage of cells in category, column 1: untreated 80.4 ± 2.6
Description: The hyphal induction assay was performed as previously reported with minor modifications ([58]). Candida albicans strain ATCC 66027 was grown in yeast extract-peptone-dextrose (YPD) medium at 30°C for 48 h to reach saturation with an OD600 of 17 to 19. Cells were diluted into fresh Spider medium (1% nutrient broth, 1% mannitol, 0.2% K2HPO4) to obtain an OD600 of 0.05 (∼0.5 × 10^6 to 1 × 10^6 cells/ml) and incubated at 37°C with shaking to induce hyphal formation. Immediately prior to the 37°C incubation, occidiofungin (1 µg/ml; 0.5× MIC) or an equal volume of DMSO was added to the cultures. Aliquots were removed at 0-, 1-, 2-, 4-, and 6-h time points and fixed in 3.7% formaldehyde for later analysis of cell morphology by light microscopy. More than 200 cells were examined for each time point, and cells were scored as having either a yeast or filamentous form, with cells showing any outgrowth considered filamentous. DNA segregation assays were performed using a mid-log culture of S. cerevisiae (BY4743, diploid) and C. albicans (ATCC 66027). The cultures were diluted in fresh YPD medium to obtain OD600s of 0.095 (∼1 × 10^6 to 1.5 × 10^6 cells/ml) and 0.05 (0.5 × 10^6 to 0.8 × 10^6 cells/ml), respectively. A blank vehicle control (DMSO) or occidiofungin (1 µg/ml; 0.5× MIC) was added, and the cultures were placed at 30°C with shaking. Samples were removed at 0.5, 1, and 2 h, and the cells fixed by adding formaldehyde (3.7%). The cells were washed in phosphate-buffered saline (PBS) and permeabilized by adding an equivalent volume of PBS containing 0.2% Triton X-100 for 30 min at room temperature. The cells were washed thrice in PBS, added to concanavalin A-treated glass slides, and overlaid with Vectashield plus DAPI (4′,6-diamidino-2-phenylindole). Images were viewed using a Nikon 50i fluorescence microscope with a 100× oil immersion objective and DAPI filter. Cells were scored on the basis of bud morphology and DNA location. One-way analyses of variance (ANOVAs) with post hoc Tukey’s honestly significant difference (HSD) testing were used to determine statistically significant differences in the distributions between treated and untreated cells. In addition, FM-464 uptake assays were used to observe endocytosis. Three 1-ml aliquots of S. pombe (OD600 of 0.6 to 0.8) were treated with 1 μl DMSO, 0.5 μg/ml (0.5× MIC), or 1 μg/ml (1× MIC) of native occidiofungin for 30 min at 30°C. The cells were washed thrice with PBS and resuspended in YPD medium containing […] FM-464 (Thermo Fisher Scientific). The cells were incubated for 60 min at 30°C, followed by two washes in PBS before visualizing on an Olympus FV1000 confocal microscope with a 40×/0.9 dry objective. Lastly, actin polymerization and depolymerization assays were performed using the Actin polymerization biochem kit (catalog number BK003; Cytoskeleton, Inc.) according to the manufacturer’s instructions.

Candida glabrata 27243 = experiment: MIC susceptibility testing (fluconazole-resistant strain); set-up: key to MIC, 50% inhibition: -: indicates absence of isolates with 50% inhibition endpoint; conditions: CLSI M27-A3
Description: as §1

Candida albicans 23512 = experiment: as above; set-up: key to MIC, 50% inhibition: -: indicates absence of isolates with 50% inhibition endpoint; conditions: CLSI M27-A3
Description: as §1

Substance: occidiofungin
- MIC (S. cerevisiae Δrom1): 0.25 µg/mL
- MIC (S. cerevisiae Δrdi1): 0.25 µg/mL
- MIC (S. cerevisiae Δscp1): 0.25 µg/mL
- MIC (S. cerevisiae Δrgl1): 0.25 µg/mL
- MIC (S. cerevisiae Δsac6): 0.25 µg/mL
- MIC (S. cerevisiae Δbni1): 0.25 µg/mL
- MIC (S. cerevisiae Δbnr1): 0.25 µg/mL
- MIC (S. cerevisiae Δabp1): 0.25 µg/mL
- MIC (S. cerevisiae Δcap2): 0.25 µg/mL
- MIC (S. cerevisiae Δmyo4): 0.25 µg/mL
- MIC (S. cerevisiae Δbem2): 0.25 µg/mL
- MIC (S. cerevisiae Δtpm1; Actin filament binding, Tropomyosin): 1.0 µg/mL
- resistance to occidiofungin of Δtpm1 mutant (S. cerevisiae Δtpm1; vs parent, MIC): 4 -fold
- MIC (S. cerevisiae Δarc18): 0.25 µg/mL
- MIC (S. cerevisiae Δsac7): 0.25 µg/mL
- MIC (S. cerevisiae Δmyo5): 0.25 µg/mL
- MIC (S. cerevisiae Δrom2): 0.25 µg/mL
- MIC (S. cerevisiae Δtpm2): 0.25 µg/mL
- MIC (S. cerevisiae Δtus1): 0.25 µg/mL
- percentage of cells in category (bud morphology and DNA localization), column 1 [1]: 66.9 ± 6.8%
- percentage of cells in category, column 2 ([1]; 0.5 h, * p < 0.05): 0.2 ± 0.3%
- percentage of cells in category, column 4 ([1]; 0.5 h, ** p < 0.01): 12.3 ± 0.6%
- percentage of cells in category, column 3 ([1]; 0.5 h): 20.5 ± 6.5%
- percentage of cells in category, column 2 ([1]; 1 h, * p < 0.05): 0.4 ± 0.1%
- percentage of cells in category, column 3 ([1]; 1 h, * p < 0.05): 25.4 ± 4.7%
- percentage of cells in category, column 4 ([1]; 1 h, ** p < 0.01): 15.1 ± 2.9%
- percentage of cells in category, column 1 ([1]; 1 h, ** p < 0.01): 59.1 ± 7.7%
- percentage of cells in category, column 2 ([1]; 2 h, * p < 0.05): 0.6 ± 0.8%
- percentage of cells in category, column 1 ([1]; 2 h, * p < 0.05): 63.5 ± 2.2%
- percentage of cells in category, column 4 ([1]; 2 h, ** p < 0.01): 13.3 ± 0.7%
- percentage of cells in category, column 3 ([1]; 2 h): 22.7 ± 2.3%
- binucleated cells ([1]; subinhibitory concentration, within 30 min): more binucleated cells
- MIC, 50% inhibition (Candida glabrata 27243; 24 hours): 2 µg/mL
- MIC, 100% inhibition (Candida glabrata 27243; 24 hours): 4 µg/mL
- MIC, 50% inhibition (Candida glabrata 27243; 48 hours): -
- MIC, 100% inhibition (Candida glabrata 27243; 48 hours): 4 µg/mL
- MIC, 50% inhibition (Candida albicans 23512; 24 hours): -
- MIC, 100% inhibition (Candida albicans 23512; 24 hours): 1 µg/mL
- MIC, 50% inhibition (Candida albicans 23512; 48 hours): -
- MIC, 100% inhibition (Candida albicans 23512; 48 hours): 2 µg/mL
